According to ChEMBL document CHEMBL1201862, “PubChem BioAssay data set” (2004):
Calls of active or inactive are those of the source.

Key:
[1] = Luminescence Cell-Based Dose Retest to Confirm Activators of 5'UTR Stem-Loop Driven Alpha-Synuclein mRNA Translation in H4 Neuroglioblastoma Cells. [Related pubchem assays (depositor defined):AID1813, AID1829]; type: functional
[2] = Luminescence Cell-Based Dose Response HTS to Identify Activators of Luciferase Translation or Activity in H4-C Neuroglioblastoma Cells. [Related pubchem assays: 1829 (Project Summary), 1814 (Primary HTS)]; type: functional
[3] = Luminescence Cell-Based Dose Response to Identify Activators of Luciferase Translation or Activity in H4-C Neuroglioblastoma Cells. [Related pubchem assays: 1829 (Project Summary), 1814 (Primary HTS)]; type: functional
H4 = test: Luminescence Cell-Based Dose Response HTS to Identify Activators of 5'UTR Stem-Loop Driven Prion Protein mRNA Translation in H4 Neuroglioblastoma Cells. [Related pubchem assays: 1829 (Project Summary), 1814 (Primary HTS)]; type: functional; details: Homo sapiens
[4] = Luminescence Cell-Based Dose Response HTS to Identify Activators of 5'UTR Stem-Loop Driven Prion Protein mRNA Translation in H4-C Neuroglioblastoma Cells. [Related pubchem assays: 1829 (Project Summary), 1814 (Primary HTS)]; type: functional
[5] = Luminescence Cell-Based Dose Response to Identify Activators of 5'UTR Stem-Loop Driven Prion Protein mRNA Translation in H4-C Neuroglioblastoma Cells. [Related pubchem assays: 1829 (Project Summary), 1814 (Primary HTS)]; type: functional
[6] = Luminescence Cell-Based Dose Confirmation to Identify Activators of 5'UTR Stem-Loop Driven Alpha-Synuclein mRNA Translation in H4 Neuroglioblastoma Cells. [Related pubchem assays: 1829 (Project Summary), 1814 (Primary HTS)]; type: functional
[7] = Luminescence Cell-Based Dose Confirmation HTS to Identify Activators of 5'UTR Stem-Loop Driven Alpha-Synuclein mRNA Translation in H4 Neuroglioblastoma Cells. [Related pubchem assays: 1829 (Project Summary), 1814 (Primary HTS)]; type: functional
[8] = Luminescence Cell-Based Dose Response HTS to Identify Activators of Luciferase Translation or Activity in H4 […] Cells. [Related pubchem assays: 1829 (Project Summary), 1814 (Primary HTS)]; type: functional
[9] = biological target: Eukaryotic translation initiation factor 4E (Mus musculus, UniProt P63073); test: blockers of eIF4G binding by eIF4E – biochemical, TR-FRET, dose response (AID 855); type: functional;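 also: potency for disrupting eIF4E binding to eIF4GI seen as loss of FRET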
Eukaryotic translation initiation factor 4E, sequence (P63073 whole entry): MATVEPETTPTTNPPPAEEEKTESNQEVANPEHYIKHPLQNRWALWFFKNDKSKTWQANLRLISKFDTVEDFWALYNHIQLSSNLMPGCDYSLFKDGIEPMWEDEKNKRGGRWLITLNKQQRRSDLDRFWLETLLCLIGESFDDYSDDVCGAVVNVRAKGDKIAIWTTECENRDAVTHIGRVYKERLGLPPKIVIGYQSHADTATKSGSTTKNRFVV

[10] = biological target: Polyadenylate-binding protein 1 (Homo sapiens, UniProt P11940); test: PABP inhibition in translation initiation, SAR follow-up (AID 435018); type: functional
Polyadenylate-binding protein 1, sequence (P11940 whole entry): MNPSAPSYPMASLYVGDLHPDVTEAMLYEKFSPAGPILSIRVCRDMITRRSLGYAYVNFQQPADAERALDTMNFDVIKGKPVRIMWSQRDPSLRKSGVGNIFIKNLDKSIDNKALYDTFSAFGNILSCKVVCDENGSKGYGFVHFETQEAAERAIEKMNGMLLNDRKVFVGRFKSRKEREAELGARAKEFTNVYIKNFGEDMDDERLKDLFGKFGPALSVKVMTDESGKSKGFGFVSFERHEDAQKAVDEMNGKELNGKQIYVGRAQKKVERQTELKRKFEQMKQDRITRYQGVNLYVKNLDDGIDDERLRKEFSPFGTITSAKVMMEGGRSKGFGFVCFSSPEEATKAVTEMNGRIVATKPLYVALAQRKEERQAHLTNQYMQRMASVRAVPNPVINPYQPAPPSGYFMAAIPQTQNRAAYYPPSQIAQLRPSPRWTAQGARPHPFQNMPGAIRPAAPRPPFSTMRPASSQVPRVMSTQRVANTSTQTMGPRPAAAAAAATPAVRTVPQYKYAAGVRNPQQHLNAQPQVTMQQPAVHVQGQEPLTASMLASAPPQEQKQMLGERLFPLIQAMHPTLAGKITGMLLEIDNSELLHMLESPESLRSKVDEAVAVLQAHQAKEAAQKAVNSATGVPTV

[11] = biological target: Eukaryotic translation initiation factor 4H (Homo sapiens, UniProt Q15056); test: inhibitors of translation initiation factor eIF4H – SAR follow-up (AID 435011); type: functional
Bcl-2-related protein A1 [12] = biological target: T1, Bcl-2-related protein A1 (Mus musculus, UniProt Q07440); test: small-molecule antagonists of Bfl-1/BH3 interaction – biochemical, TR-FRET, mouse Bfl-1, confirmation (AID 621);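 also: TR-FRET binding of GST-Bfl-1 to FITC-labelled Bid peptide via terbium antibody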
T1 sequence (Q07440 whole entry): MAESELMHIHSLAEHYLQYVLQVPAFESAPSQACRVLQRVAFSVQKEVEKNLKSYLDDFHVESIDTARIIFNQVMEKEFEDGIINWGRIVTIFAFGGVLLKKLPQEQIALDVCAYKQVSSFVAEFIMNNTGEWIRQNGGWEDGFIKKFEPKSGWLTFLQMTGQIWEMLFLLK

[13] = A cytotoxicity screen of small molecule inhibitors of the PhoP region in Salmonella typhi identified in the primary screen. [Related pubchem assays: 1850, 1864, 1985 ]; type: functional
[14] = biological target: NACHT, LRR and PYD domains-containing protein 3 (Homo sapiens, UniProt Q96P20); test: NALP3 inhibitors in yeast, dose response, luminescent (AID 488799); type: functional
NACHT, LRR and PYD domains-containing protein 3, sequence (Q96P20 whole entry, the tested form may be a part): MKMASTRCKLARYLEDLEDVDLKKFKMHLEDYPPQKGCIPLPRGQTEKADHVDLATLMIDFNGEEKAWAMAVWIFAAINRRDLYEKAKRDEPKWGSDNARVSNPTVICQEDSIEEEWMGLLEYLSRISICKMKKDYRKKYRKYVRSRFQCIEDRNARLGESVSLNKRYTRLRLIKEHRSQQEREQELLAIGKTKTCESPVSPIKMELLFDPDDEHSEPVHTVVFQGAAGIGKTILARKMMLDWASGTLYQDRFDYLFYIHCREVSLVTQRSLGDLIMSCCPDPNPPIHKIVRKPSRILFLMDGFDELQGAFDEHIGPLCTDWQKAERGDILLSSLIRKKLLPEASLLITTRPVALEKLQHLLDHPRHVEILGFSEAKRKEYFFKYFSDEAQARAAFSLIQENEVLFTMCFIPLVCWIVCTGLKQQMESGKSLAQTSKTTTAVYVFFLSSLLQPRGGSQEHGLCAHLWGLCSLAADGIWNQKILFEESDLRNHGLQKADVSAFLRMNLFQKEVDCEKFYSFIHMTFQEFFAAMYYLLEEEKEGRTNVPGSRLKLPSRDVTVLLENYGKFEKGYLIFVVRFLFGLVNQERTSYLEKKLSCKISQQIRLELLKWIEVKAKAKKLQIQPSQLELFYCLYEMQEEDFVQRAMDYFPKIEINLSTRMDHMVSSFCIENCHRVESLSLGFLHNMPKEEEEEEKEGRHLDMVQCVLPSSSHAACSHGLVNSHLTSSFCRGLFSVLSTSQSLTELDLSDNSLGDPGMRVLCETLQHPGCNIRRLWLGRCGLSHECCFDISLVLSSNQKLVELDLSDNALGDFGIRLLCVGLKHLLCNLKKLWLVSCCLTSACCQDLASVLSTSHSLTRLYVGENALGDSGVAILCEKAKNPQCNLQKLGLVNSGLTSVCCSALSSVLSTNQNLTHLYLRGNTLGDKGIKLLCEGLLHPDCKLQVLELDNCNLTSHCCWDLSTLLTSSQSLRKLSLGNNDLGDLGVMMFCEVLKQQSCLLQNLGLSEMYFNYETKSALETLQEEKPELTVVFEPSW

Bcl-2-related protein A1 [15] = biological target: T1, Bcl-2-related protein A1; test: displacement of Bid BH3 peptide from Bfl-1 – biochemical, fluorescence polarization, FITC-Bid, mouse, primary screen (AID 432)
[16] = biological target: Alkaline phosphatase, placental type (Homo sapiens, UniProt P05187); test: human placental alkaline phosphatase inhibition – biochemical, luminescence, confirmation (AID 1512); type: functional
Alkaline phosphatase, placental type, sequence (P05187 whole entry): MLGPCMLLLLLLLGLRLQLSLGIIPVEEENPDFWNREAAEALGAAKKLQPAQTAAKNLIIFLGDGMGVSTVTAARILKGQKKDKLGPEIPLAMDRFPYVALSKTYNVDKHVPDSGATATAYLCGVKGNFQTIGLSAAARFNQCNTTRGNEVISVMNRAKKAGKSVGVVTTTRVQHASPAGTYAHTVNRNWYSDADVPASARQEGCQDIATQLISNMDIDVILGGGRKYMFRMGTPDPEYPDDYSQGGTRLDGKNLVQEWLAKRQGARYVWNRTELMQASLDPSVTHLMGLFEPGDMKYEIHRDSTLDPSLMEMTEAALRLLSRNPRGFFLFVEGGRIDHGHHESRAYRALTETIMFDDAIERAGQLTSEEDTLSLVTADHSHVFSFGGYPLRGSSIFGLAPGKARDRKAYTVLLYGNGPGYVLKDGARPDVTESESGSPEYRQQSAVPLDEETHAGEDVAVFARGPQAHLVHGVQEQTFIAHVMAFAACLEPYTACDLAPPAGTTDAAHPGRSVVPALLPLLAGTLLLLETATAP

[17] = biological target: T2, Mannose-6-phosphate isomerase (Homo sapiens, UniProt P34949); test: Confirmation of compounds inhibiting phosphomannose isomerase (PMI) via a fluorescence intensity assay using a high concentration of mannose 6-phosphate. [Related pubchem assays (depositor defined):AID1209, AID1220, AID1545, AID1553, AID1620]
T2 sequence (P34949 whole entry): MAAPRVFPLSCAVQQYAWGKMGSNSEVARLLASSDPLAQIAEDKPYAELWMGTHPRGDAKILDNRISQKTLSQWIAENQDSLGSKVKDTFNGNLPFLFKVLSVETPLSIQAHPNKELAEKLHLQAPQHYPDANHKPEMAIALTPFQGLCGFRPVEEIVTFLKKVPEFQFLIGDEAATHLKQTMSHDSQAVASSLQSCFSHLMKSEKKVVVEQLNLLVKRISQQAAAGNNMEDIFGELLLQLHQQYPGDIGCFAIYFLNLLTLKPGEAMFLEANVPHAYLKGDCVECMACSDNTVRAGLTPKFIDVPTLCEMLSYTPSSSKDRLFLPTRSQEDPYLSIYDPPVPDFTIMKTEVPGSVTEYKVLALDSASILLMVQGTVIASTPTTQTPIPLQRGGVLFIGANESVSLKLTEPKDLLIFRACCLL

[18] = biological target: T2, Mannose-6-phosphate isomerase; test: phosphomannose isomerase inhibition – biochemical, fluorescence intensity, confirmation (AID 1535)

## C=CCc1ccc(OCCn2nnc3ccccc32)c(OC)c1
[1]
  EC50: > 195 µM (inactive)
[2]
  EC50: 0.772 µM (active)
[3]
  EC50: 3.71 µM (active)
H4
  EC50: 8.33 µM (active)
[4]
  EC50: > 195 µM (not active)
[5]
  EC50: 1.49 µM (active)
[6]
  EC50: > 12 µM (not active)
[7]
  EC50: < 0.1 µM (active)
[8]
  EC50: 4.24 µM (active)

## CC(=O)Nc1c(-c2ccccc2)nc2ncccn12
[9]
  IC50: > 64 µM (inactive)

## COc1cc(NC(=O)CSc2ccc(-c3ccco3)nn2)cc(OC)c1
[10]
  IC50: > 100 µM (inactive)
[11]
  IC50: 62.7 µM (active)

## O=C(Nc1cccc(Br)c1)c1cc2ccccc2o1
Bcl-2-related protein A1 [12]
  IC50: > 100 µM (not active)
[13]
  EC50: > 50 µM (active)
[14]
  IC50: 9.81 µM (active)
Bcl-2-related protein A1 [15]
  IC50: > 100 µM (not active)

## O=C1N(Cc2ccccc2)c2ccccc2C12NNc1ccccc1O2 (centres undefined)
[16]
  IC50: > 100 µM (inactive)
[17]
  IC50: > 100 µM (inactive)
[18]
  IC50: > 100 µM (inactive)
